Experiments:
Format in all cases: physicochemical
[1] = Example 5: degradation over time of black currant anthocyanosides at 37° C., pH 7.0, with/without GSH (HPLC); details: pH 7.0, 37° C.; for %-residual anthocyanosides (% left): 4 hours
Method: (§1) Sample a) 60 mg black currant extract [35% anthocyanosides] (0.037 mmol anthocyanosides expressed as cyanidin-3-O-rutinoside) were added to a 100 ml flask, filled to volume with sodium phosphate buffer (5% [w/w], pH=7.0) and stirred until dissolution was complete. A 1 ml sample was taken immediately, acidified with formic acid to pH=1.0 and analyzed by HPLC for the content of anthocyanosides. The remaining solution was kept at 37° C. (water bath) with stirring and 1 ml samples (Blank Samples), representing unprotected degradation, were taken every 15 minutes. The samples were analyzed for selected anthocyanosides by HPLC.
(§2) Sample b) 20 mg reduced L-glutathione (0.065 mmol) were added to a 100 ml flask with 60 ml sodium phosphate buffer (5% [w/w], pH=7.0) and stirred until dissolution was complete. 60 mg black currant extract [35% anthocyanosides] (0.037 mmol anthocyanosides expressed as cyanidin-3-O-rutinoside) were added, the flask was filled to volume with sodium phosphate buffer (5% [w/w], pH=7.0) and kept for at 37° C. (water bath) with stirring. Every 15 minutes 1 ml samples were taken and analyzed for selected anthocyanosides by HPLC.
(§3) Samples were prepared as outlined below in HPLC Analytical Method. Test stability samples were immediately acidified (to block degradation) and injected undiluted following the detailed description provided below.

[2] = Example 3: stability of black currant extract anthocyanosides, 4 hours at 37° C., pH 7.0, with/without DHLA, GSH or L-cysteine (HPLC)
Method: as §1, with “flask and” for “flask,”, “anthocyanosides (Fresh Sample).” for “anthocyanosides.”, “kept for 4 hours” for “kept”, “stirring. Thereafter” for “stirring and 1 ml”, “sample),” for “Samples),”, “and acidified.” for “every 15 minutes. The samples were analyzed for selected anthocyanosides by HPLC.”
as §2, with “then added and” for “added,”, “for 4 hours” for “for”, “stirring.” for “stirring. Every 15 minutes 1 ml samples were taken and analyzed for selected anthocyanosides by HPLC.”
(§4) Sample c) 20 mg dihydrolipoic acid (0.096 mmol) were added to a 100 ml flask with 60 ml sodium phosphate buffer (5% [w/w], pH=7.0) and stirred until dissolution was completed. 60 mg black currant extract [35% anthocyanosides] (0.037 mmol anthocyanosides expressed as cyanidin-3-O-rutinoside) were added to the flask, filled to volume with sodium phosphate buffer (5% [w/w], pH=7.0) and kept for 4 hours at 37° C. (water bath) with stirring.
as §4, with “d)” for “c)”, “L-cysteine” for “dihydrolipoic”, “(0.165” for “(0.096”, “complete.” for “completed.”
After 4 hours samples were taken, acidified immediately with formic acid to pH=1.0 and analyzed by HPLC for the content of anthocyanosides. Degradation is expressed as decrease in peak area of individual peaks (calculated as % left after 4 hours).
as §3
(§5) HPLC Analytical Method (Materials, Instruments and Methods): […]

[3] = Example 2: degradation over time of selected bilberry anthocyanosides at 37° C., pH 7.0, with/without GSH (HPLC); details: pH 7.0, 37° C.; for %-residual anthocyanosides (% left): 4.30 hours
Method: Sample a) 60 mg bilberry extract [37% anthocyanosides] (0.048 mmol expressed as cyanidin-3-O-glucoside) were added to a 100 ml, filled to volume with sodium phosphate buffer (5% [w/w], pH=7.0) and stirred until dissolution was complete. A 1 ml sample was immediately taken and acidified with formic acid to pH=1.0 and analyzed by HPLC for the content of anthocyanosides. The remaining solution was kept at 37° C. (water bath) with stirring and additional 1 ml samples (Blank Samples), representing unprotected degradation, were sampled every 15 minutes. The samples were analyzed for selected anthocyanosides by HPLC.
Sample b) 20 mg reduced L-glutathione (0.065 mmol) were added to a 100 ml flask with 60 ml sodium phosphate buffer (5% [w/w], pH=7.0) and stirred until dissolution was complete. 60 mg bilberry extract [37% anthocyanosides] (0.048 mmol expressed as cyanidin-3-O-glucoside) were added and the flask was filled to volume with sodium phosphate buffer (5% [w/w], pH=7.0) and kept at 37° C. (water bath) with stirring. Every 15 minutes, 1 ml samples were taken and analyzed for selected anthocyanosides by HPLC.
as §3, §5

[4] = Example 1: stability of bilberry extract anthocyanosides, 4 hours at 37° C., pH 7.0, with/without DHLA or GSH (HPLC)
Method: (0.048 mmol anthocyanosides expressed as cyanidin-3-O-glucoside) were added to a 100 ml flask and filled to volume with sodium phosphate buffer (5% [w/w], pH=7.0), and stirred until dissolution was complete. A 1 ml sample was taken immediately and acidified with formic acid to pH=1.0 and analyzed by HPLC for the content of anthocyanosides (Fresh Sample). The remaining solution was kept for 4 hours at 37° C. (water bath) with stirring. Thereafter another sample (Blank sample), representing unprotected degradation, was taken and acidified.
(0.048 mmol expressed as cyanidin-3-O-glucoside) were then added and the flask was filled to volume with sodium phosphate buffer (5% [w/w], pH=7.0) and kept for 4 hours at 37° C. (water bath) with stirring.
After 4 hours, samples were taken and acidified immediately with formic acid to pH=1.0 and analyzed by HPLC for the content of anthocyanosides. Degradation is expressed as decrease in peak area of individual peaks (calculated as % left after 4 hours).
Quantitation: External standardization based on linear regression analysis. The response factors of all anthocyanosides separated is quantitified against cyanidin-3-O-glucoside.
Test solutions from incubation experiments (with/without cells and with/without stabilizing agents) were used for analysis after stabilization of anthocyanosides with formic acid. Samples were cleared by filtration prior to injection on to HPLC-system.

[5] = GSH protected sample (20 mg), 0:00 h
[6] = GSH protected sample (20 mg), 0:15 h
[7] = GSH protected sample (20 mg), 0:45 h
[8] = GSH protected sample (20 mg), 1:00 h
[9] = GSH protected sample (20 mg), 1:15 h
[10] = GSH protected sample (20 mg), 1:45 h
[11] = GSH protected sample (20 mg), 2:00 h
[12] = GSH protected sample (20 mg), 2:15 h
[13] = GSH protected sample (20 mg), 2:45 h
[14] = GSH protected sample (20 mg), 3:00 h
[15] = GSH protected sample (20 mg), 3:15 h
[16] = GSH protected sample (20 mg), 3:45 h
[17] = GSH protected sample (20 mg), 4:00 h
[18] = GSH protected sample (20 mg), 4:15 h
[19] = unprotected, pH 7.0, 37° C., 4 hours
[20] = 20 mg reduced L-glutathione, pH 7.0, 37° C., 4 hours
[21] = 30 mg dihydrolipoic acid, pH 7.0, 37° C., 4 hours

SMILES: C[C@@H]1O[C@@H](OC[C@H]2O[C@@H](Oc3cc4c(O)cc(O)cc4[o+]c3-c3ccc(O)c(O)c3)[C@H](O)[C@@H](O)[C@@H]2O)[C@H](O)[C@H](O)[C@H]1O [Cn-3-O-Rut, Cyanidin-3-O-rutinoside]
- Peak Area ([1]; Blank sample, 0:00 h): 3539.1
- Peak Area ([1]; Blank sample, 0:15 h): 2707.4
- Peak Area ([1]; Blank sample, 0:30 h): 2620.7
- Peak Area ([1]; Blank sample, 0:45 h): 2342.2
- Peak Area ([1]; Blank sample, 1:00 h): 2278.1
- Peak Area ([1]; Blank sample, 1:30 h): 2130.7
- Peak Area ([1]; Blank sample, 1:45 h): 2104.9
- Peak Area ([1]; Blank sample, 2:00 h): 1894.9
- Peak Area ([1]; Blank sample, 2:15 h): 1851.7
- Peak Area ([1]; Blank sample, 2:30 h): 1790.9
- Peak Area ([1]; Blank sample, 2:45 h): 1694.9
- Peak Area ([1]; Blank sample, 3:00 h): 1573.5
- Peak Area ([1]; Blank sample, 3:15 h): 1531.6
- Peak Area ([1]; Blank sample, 3:30 h): 1370.4
- Peak Area ([1]; Blank sample, 3:45 h): 1361.3
- Peak Area ([1]; Blank sample, 4:00 h): 1182.9
- %-residual anthocyanosides (% left) ([1]; Blank): 33%
- Peak Area [1, 5]: 3473.6
- Peak Area [1, 6]: 3108.1
- Peak Area [1, 7]: 2964.3
- Peak Area [1, 8]: 3015.3
- Peak Area [1, 9]: 2958.5
- Peak Area [1, 10]: 2688.8
- Peak Area [1, 11]: 2777.8
- Peak Area [1, 12]: 2579.6
- Peak Area [1, 13]: 2447.1
- Peak Area [1, 14]: 2534.7
- Peak Area [1, 15]: 2366.8
- Peak Area [1, 16]: 2274.2
- Peak Area [1, 17]: 2298.9
- Peak Area [1, 18]: 2199.7
- %-residual anthocyanosides (% left) ([1]; GSH-protected): 66%
- Peak Area, Fresh solution ([2]; black currant extract 60 mg/100 ml buffer pH 7.0, fresh sample): 3539
- % left, DHLA 20 mg ([2]; pH 7.0, 37° C., 4 hours): 51.1%
- % left, GSH 20 mg ([2]; pH 7.0, 37° C., 4 hours): 65.0%
- % left, L-cysteine 20 mg ([2]; pH 7.0, 37° C., 4 hours): 38.9%
- Peak Area, DHLA 20 mg ([2]; pH 7.0, 37° C., 4 hours): 1809
- Peak Area, GSH 20 mg ([2]; pH 7.0, 37° C., 4 hours): 2299
- Peak Area, L-cysteine 20 mg ([2]; pH 7.0, 37° C., 4 hours): 1377
- % left, Blank [2, 19]: 33.4%
- Peak Area, Blank [2, 19]: 1183

SMILES: COc1cc(-c2[o+]c3cc(O)cc(O)c3cc2OC2OC(CO)C(O)C(O)C2O)cc(O)c1O (stereo not shown) [Pt-3O-Gal, Petunidin 3-o-galactoside]
- Peak Area ([3]; Blank Sample, 1:15 h): 124.16
- Peak Area ([3]; Blank Sample, 4:15 h): 102.44
- Peak Area ([3]; Blank Sample, 4:30 h): 58.78
- Peak Area ([3]; Blank sample, 0:00 h): 237.44
- Peak Area ([3]; Blank sample, 0:15 h): 179.60
- Peak Area ([3]; Blank sample, 0:30 h): 203.39
- Peak Area ([3]; Blank sample, 0:45 h): 152.46
- Peak Area ([3]; Blank sample, 1:00 h): 161.49
- Peak Area ([3]; Blank sample, 1:45 h): 144.59
- Peak Area ([3]; Blank sample, 2:00 h): 132.38
- Peak Area ([3]; Blank sample, 2:15 h): 121.96
- Peak Area ([3]; Blank sample, 2:30 h): 96.36
- Peak Area ([3]; Blank sample, 2:45 h): 99.38
- Peak Area ([3]; Blank sample, 3:00 h): 127.47
- Peak Area ([3]; Blank sample, 3:15 h): 123.02
- Peak Area ([3]; Blank sample, 3:30 h): 98.72
- Peak Area ([3]; Blank sample, 4:00 h): 107.51
- %-residual anthocyanosides (% left) ([3]; Blank): 25%
- Peak Area ([3]; GSH Protected Sample (20 mg), 0:30 h): 222.35
- Peak Area ([3]; GSH Protected Sample (20 mg), 1:30 h): 202.34
- Peak Area ([3]; GSH Protected Sample (20 mg), 2:30 h): 169.36
- Peak Area ([3]; GSH Protected Sample (20 mg), 3:30 h): 181.53
- Peak Area ([3]; GSH Protected Sample (20 mg), 4:30 h): 181.46
- Peak Area ([3]; GSH Protected Sample (20 mg), 4:45 h): 166.84
- Peak Area [3, 5]: 248.16
- Peak Area [3, 6]: 245.04
- Peak Area [3, 7]: 195.63
- Peak Area [3, 8]: 213.84
- Peak Area [3, 9]: 210.34
- Peak Area [3, 10]: 194.88
- Peak Area [3, 11]: 193.23
- Peak Area [3, 12]: 199.06
- Peak Area [3, 13]: 183.97
- Peak Area [3, 14]: 189.41
- Peak Area [3, 15]: 185.92
- Peak Area [3, 16]: 173.03
- Peak Area [3, 17]: 193.79
- Peak Area [3, 18]: 179.46
- %-residual anthocyanosides (% left) ([3]; GSH-protected): 67%
- %-residual anthocyanosides (% left) ([3]; GSH-protected, listed as petunidin-3-O-Galactose): 67%
- % left, GSH (4 hours) [4, 20]: 69.3%
- Peak Area, GSH (4 hours) [4, 20]: 150.0
- % left, DHLA (4 hours) [4, 21]: 61.4%
- Peak Area, DHLA (4 hours) [4, 21]: 132.8
- Peak Area, Fresh (0 hours) ([4]; bilberry extract 60 mg/100 ml sodium phosphate buffer pH 7.0, fresh sample): 216.4
- % left, Blank (4 hours) [4, 19]: 18.8%
- Peak Area, Blank (4 hours) [4, 19]: 40.7
